# Source: patent US8815857B2 (Boehringer Ingelheim International GmbH, priority 2011, dated 2014)
# Experiments:
# [1] = biological target: T1, human soluble guanylate cyclase alpha 1 and beta 1 subunits (sGC) stably expressed in Chinese hamster ovary cells (Homo sapiens, UniProt Q02108+Q02153); test: sGC cellular activator assay: cGMP in CHO cells expressing human sGC, preincubated with ODQ; type: cell-based; details: 40 microM ODQ preincubation, 30 min at room temperature, presence or absence of 50% human serum not given, read-out: EC50 nM, Activity of Compounds in Cellular Assay
# T1 construct: expressed in transfected cells; host or cells: Chinese hamster ovary cells, stably transfected
# T1 sequence (Q02108 1-690 partner): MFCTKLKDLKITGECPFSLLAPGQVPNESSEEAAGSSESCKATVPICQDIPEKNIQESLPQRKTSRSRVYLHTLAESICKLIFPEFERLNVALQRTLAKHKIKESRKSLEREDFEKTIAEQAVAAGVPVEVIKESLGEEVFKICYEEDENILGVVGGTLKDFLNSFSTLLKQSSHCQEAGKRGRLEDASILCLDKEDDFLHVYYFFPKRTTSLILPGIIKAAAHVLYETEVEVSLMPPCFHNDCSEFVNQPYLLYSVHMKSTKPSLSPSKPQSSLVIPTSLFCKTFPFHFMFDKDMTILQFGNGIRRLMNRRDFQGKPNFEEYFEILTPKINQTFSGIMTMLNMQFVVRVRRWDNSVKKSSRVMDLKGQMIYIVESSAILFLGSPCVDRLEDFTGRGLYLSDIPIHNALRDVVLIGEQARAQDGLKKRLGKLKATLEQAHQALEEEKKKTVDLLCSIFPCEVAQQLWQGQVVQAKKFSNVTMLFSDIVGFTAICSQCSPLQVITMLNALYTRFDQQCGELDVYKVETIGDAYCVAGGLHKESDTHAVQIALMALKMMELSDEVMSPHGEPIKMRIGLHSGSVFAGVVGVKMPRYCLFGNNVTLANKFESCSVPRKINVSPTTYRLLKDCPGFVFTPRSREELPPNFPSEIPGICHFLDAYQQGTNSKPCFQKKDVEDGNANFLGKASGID
# T1 sequence (Q02153 1-619): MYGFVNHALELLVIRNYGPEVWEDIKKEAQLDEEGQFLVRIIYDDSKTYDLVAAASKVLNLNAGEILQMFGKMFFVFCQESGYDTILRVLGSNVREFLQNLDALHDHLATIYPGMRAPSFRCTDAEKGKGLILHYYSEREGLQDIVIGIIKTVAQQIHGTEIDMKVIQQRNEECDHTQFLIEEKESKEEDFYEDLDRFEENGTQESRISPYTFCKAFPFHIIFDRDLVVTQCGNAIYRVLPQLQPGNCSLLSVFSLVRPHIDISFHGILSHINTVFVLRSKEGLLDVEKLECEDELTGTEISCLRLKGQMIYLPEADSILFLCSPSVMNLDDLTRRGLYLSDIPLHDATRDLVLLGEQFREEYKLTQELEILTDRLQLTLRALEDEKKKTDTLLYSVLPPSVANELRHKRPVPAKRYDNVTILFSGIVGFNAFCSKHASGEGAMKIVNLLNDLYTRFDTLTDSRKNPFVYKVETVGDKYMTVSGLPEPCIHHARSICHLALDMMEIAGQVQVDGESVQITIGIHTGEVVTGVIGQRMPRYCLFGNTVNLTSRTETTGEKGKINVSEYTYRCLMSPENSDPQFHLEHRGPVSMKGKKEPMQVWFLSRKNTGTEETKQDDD
# Method: The sGC cellular activator assay is performed in the presence and absence of 50% human serum (HS) using Chinese hamster ovary cells that have been stably transfected to express the human soluble guanylate cyclase alpha 1 and beta 1 subunits (sGC). Cells are preincubated with 40 microM 1H-[1,2,4]oxadiazolo[4,3-a]quinoxalin-1-one (ODQ), an sGC inhibitor, for one hour in buffer containing 0.1% bovine serum albumin and 3-isobutyl-1-methylxanthine (IBMX). Concentration response curves are prepared for test compounds in DMSO. An intermediate dilution of the compounds is performed in either buffer containing IBMX or type AB HS containing IBMX. Diluted compounds are added to cells and they are incubated at room temperature for thirty minutes. cGMP is measured using a CisBio homogeneous time resolved fluorescence kit and the EC50 is calculated for each compound.
# [2] = Assessment of solubility: HT solubility in pION buffer, UV spectrophotometry; details: kinetic from dmso stock
# Method: Solubility is measured by the following method.
# DMSO stock samples at 10 mM concentration are prepared. […] The samples are pierced and 100 ul of thawed samples are transferred into the PCR plate for analysis. Each sample is run in duplicate at each pH (pH 4.5 and 7.4). Up to 95 samples can be run in replicate at 2 pH's+1 DMSO (blank).
# Preparation of pH 4.5 and 7.4 Buffers:
# • pH 4.5 buffer:—To 12.5 of system solution (pION)qs to 500 mL of distilled water (pH 2.85-2.90); adjust the pH to pH 4.5 with 0.5 N NaOH. • pH 7.4 buffer: To 12.5 of system solution (pION)qs to 500 mL of distilled water (pH 2.85-2.90); adjust the pH to pH 7.4 with 0.5N NaOH. […] Procedure: Preparation of UV Blank Plate:
# 75 ul of buffer (pH 7.4 or pH 4.5) is added to UV plate followed by addition of 70 ul of N-propanol. The solution is mixed and the blank spectrum is read using spectrophotometer.
# Preparation of Reference UV Plate:
# 10 ul of each stock sample (including DMSO control) is added to 190 ul of N-propanol to prepare the reference stock plate. Reference stock samples are mixed and 5 ul of each stock sample is added to UV blank plate after it is read spectrophotometrically. The reference stock sample is mixed with blank solution in UV plate and the reference spectrum is read using UV spectrophotometer.
# Preparation of Sample for Incubation:
# Solubility at pH 7.4:6 ul of each stock sample (including DMSO control) is added to the storage plate containing 600 ul of pH 7.4 buffer, mixed and incubated for 16-19 h. The plate is sealed well during the incubation process. The DMSO content in the sample is 1.0%. The concentration in deep well plates is 100 uM
# 6 ul of each stock sample (including DMSO control) is added to the deep well plate containing 600 ul of pH 4.5 buffer, mixed and incubated for 16-19 h. The plate is sealed well during the incubation process. The DMSO content in the sample is 1.0%. The concentration in deep well plates is 100 uM
# Preparation of Sample UV Plate:
# At the end of the incubation period, 100 uL of sample from the storage plate is vacuum filtered using a filter plate. This step wets the filters and the filtrate is discarded. Another 200 ul of the sample from the deep well plate is vacuum filtered using the same filter block but a clean filter plate. 75 ul of the filtrate from the filter plate is transferred to a UV sample plate. 75 ul of N-propanol is added to this UV plate. The solution is mixed and the spectrum is read using the UV spectrophotometer.
# The spectra collected for blank, reference and sample from 250-498 nm is analyzed using pION software. If the sample precipitates out, the solubility is reported as XX μg/ml.
# [3] = biological target: T2, Recombinant human soluble guanylate cyclase (sGC), alpha 1 / beta 1 subunits, heme-free (Homo sapiens, UniProt Q02108+Q02153); test: Molecular assay: cGMP formation by heme-free recombinant sGC (CisBio cGMP detection kit); type: biochemical; details: 300 pM heme-free sGC, 37° C., 60 min, cGMP readout; read-out: EC50 nM, Activity of Compounds in Molecular Assay
# T2 construct: histidine tag (C); made in house; host or cells: Sf9 insect cells (baculovirus coinfection)
# T2 sequence (Q02108 1-690 partner): T1 sequence (Q02108 1-690 partner)
# T2 sequence (Q02153 1-619): T1 sequence (Q02153 1-619)
# In short: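 Heme-free His-tagged sGC (Sf9-expressed, Tween 20-treated lysate) at 300 pM incubated with compounds (1% DMSO) for 60 min at 37° C in MOPS pH 6.8 with 50 nM GTP, IBMX, TCEP. cGMP quantified by HTRF against calibration curve; EC50 from combined undiluted/diluted values.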
# [4] = pH 6.8, aqueous buffer, Solubility (pH 6.8), pH 6.8
# [5] = pION system solution buffer, pH 4.5, pH 4.5, aqueous buffer, Solubility (pH 4.5), pH 4.5 buffer, 16-19 h incubation, 1.0% DMSO
# [6] = pION system solution buffer, pH 7.4, pH 7.4, aqueous buffer, Solubility (pH 7.4), pH 7.4 buffer, 16-19 h incubation, 1.0% DMSO
SMILES,EC50 [1] [nM],"solubility [2, 4] [µg/mL]","solubility [2, 5] [µg/mL]","solubility [2, 6] [µg/mL]",EC50 [3] [nM]
Cc1ccc(OCc2ccc(C(=O)N3CCn4cnnc4C3)cc2C)c(-c2csc(N3C[C@H]4CC[C@@H](C3)[C@H]4C(=O)O)n2)c1 [Compound 333],110,59,1.1,–,–
Cc1ccc(OCc2ccc(C(=O)N(C)Cc3cncn3C)cc2C)c(-c2csc(N3C[C@H]4CC[C@@H](C3)[C@H]4C(=O)O)n2)c1 [Compound 331],140,47,42,–,–
Cc1ccc(OCc2ccc(C(=O)N(C)CC3(CO)CC3)cc2C)c(-c2csc(N3C[C@H]4CC[C@@H](C3)[C@H]4C(=O)O)n2)c1 [Compound 342],110,55,< 0.1,–,–
Cc1ccc(OCc2ccc(CN3CCOCC3)cc2C)c(-c2csc(N3CC(CC(=O)O)C3)n2)c1 [Compound 254],450,51,40,–,–
Cc1ccc(OCc2ccc(C(=O)N(C)C)cc2C)c(-c2csc(N3C[C@H]4CC[C@@H](C3)[C@H]4C(=O)O)n2)c1 [Compound 304],23,60,< 0.1,–,–
"Cc1ccc(OCc2ccc(C(=O)N3CCC3)cc2C)c(-c2csc(N3C[C@H]4CC[C@@H](C3)[C@H]4C(=O)O)n2)c1 [Compound 361, 3-(4-{2-[4-(azetidine-1-carbonyl)-2-methyl-benzyloxy]-5-methyl-phenyl}-thiazol-2-yl)-3-aza-bicyclo[3.2.1]octane-8(syn)-carboxylic acid]",17,34,–,–,–
Cc1ccc(OCc2ccc(CN3CCOCC3)cc2C)c(-c2csc(N3CC[C@]4(C(=O)O)C[C@@H]4C3)n2)c1 [Compound 220],42,4.8,42,4,–
Cc1ccc(OCc2ccc(C(=O)N3CC(F)(F)C3)cc2C)c(-c2csc(N3C[C@H]4CC[C@@H](C3)[C@H]4C(=O)O)n2)c1 [Compound 360],21,33,–,–,–
Cc1ccc(OCc2ccc(CN3CCN(C(=O)C4CC4)CC3)cc2C)c(-c2csc(N3C[C@H]4CC[C@@H](C3)[C@H]4C(=O)O)n2)c1 [Compound 228],39,0.42,6.1,–,–
Cc1ccc(OCc2ccc(C(=O)N(C)CC#N)cc2C)c(-c2csc(N3C[C@H]4CC[C@@H](C3)[C@H]4C(=O)O)n2)c1 [Compound 330],52,40,< 0.1,–,–
Cc1ccc(OCc2ccc(C(=O)N3CCCCCC3)cc2C)c(-c2csc(N3C[C@H]4CC[C@@H](C3)[C@H]4C(=O)O)n2)c1 [Compound 302],35,4.6,< 0.1,–,–
Cc1ccc(OCc2ccc(CN3CCS(=O)(=O)CC3)cc2C)c(-c2csc(N3CC[C@@H](C(=O)O)[C@H]3C)n2)c1 [Compound 245],290,48,3.6,–,–
Cc1ccc(OCc2ccc(C(=O)N3CCCCC3)cc2C)c(-c2csc(N3CC[C@@H](C(=O)O)[C@H]3C)n2)c1 [Compound 240],36,–,–,–,–
Cc1ccc(OCc2ccc(C(=O)N3CCCC(C)(O)C3)cc2C)c(-c2csc(N3C[C@H]4CC[C@@H](C3)[C@H]4C(=O)O)n2)c1 (stereo partly shown) [Compound 336],79,6.1,0.16,–,–
Cc1ccc(OCc2ccc(CN3CCOCC3)cc2C)c(-c2csc(N3CCC4CC4(C(=O)O)CC3)n2)c1 (stereo not shown) [Compound 231],150,–,–,–,–
Cc1ccc(OCc2ccc(C(=O)N3CCOCC3)cc2C)c(-c2csc(N3CC[C@@]4(C(=O)O)C[C@H]4C3)n2)c1 [Compound 224],5.8,54,< 0.1,–,–
Cc1ccc(OCc2ccc(C(=O)N3CCC(F)(F)CC3)cc2C)c(-c2csc(N3C[C@H]4CC[C@@H](C3)[C@H]4C(=O)O)n2)c1 [Compound 317],20,41,< 0.1,–,–
Cc1ccc(OCc2ccc(CN3CCOCC3)cc2C)c(-c2csc(N3CC[C@@H](C(=O)O)[C@H]3C)n2)c1 [Compound 242],90,37,53,–,–
"Cc1ccc(OCc2ccc(C(=O)N3CCCCC3)cc2C)c(-c2nc(N3C[C@H]4CC[C@@H](C3)[C@H]4C(=O)O)sc2F)c1 [Compound 202, 3-[5-fluoro-4-[5-methyl-2-[[2-methyl-4-(piperidine-1-carbonyl)phenyl]methoxy]phenyl]thiazol-2-yl]-3-azabicyclo[3.2.1]octane-8(syn)-carboxylic acid]",310,91,97,> 59,–
Cc1ccc(OCc2ccc(CN3CCOC(C#N)C3)cc2C#N)c(-c2csc(N3C[C@H]4CC[C@@H](C3)[C@H]4C(=O)O)n2)c1 (stereo partly shown) [Compound 355],9.2,7,0.77,–,–
COCC1CN(Cc2ccc(COc3ccc(C)cc3-c3csc(N4C[C@H]5CC[C@@H](C4)[C@H]5C(=O)O)n3)c(C#N)c2)CCO1 (stereo partly shown) [Compound 212],100,32,11,–,–
Cc1ccc(OCc2ccc(C(=O)N3CCCCC3)cc2OC(F)(F)F)c(-c2csc(N3C[C@H]4CC[C@@H](C3)[C@H]4C(=O)O)n2)c1 [Compound 279],11,–,–,–,–
Cc1cc(CN2CCOCC2)ccc1COc1ccc(C#N)cc1-c1csc(N2C3CCC2CC(C(=O)O)C3)n1 (stereo not shown) [Compound 87],–,–,> 63,> 63,800
Cc1ccc(OCc2ccc(CN3CCN(C)C(=O)C3)cc2C)c(-c2csc(N3CCC(C(=O)O)CC3)n2)c1 [Compound 292],10,–,–,–,–
Cc1cc(CN2CCOCC2)ccc1COc1ccc(C#N)cc1-c1csc(N2CCC(C(=O)O)CC2)n1 [Compound 168],–,–,36,> 57,730
